# Data reported in patent US20210308108A1, “ACTIVATING PYRUVATE KINASE R” (FORMA Therapeutics, Inc., priority 2018, published 2021).
# Columns and labels:
# Type in all cases: biochemical
# PKR-R510Q [1] = target: T1, PKR-R510Q (Homo sapiens, UniProt P30613, R510Q); assay: Enzyme assay, activation at different compound concentrations (rate of ATP formation); conditions: PEP concentrations at or below Km
# wt-PKR [2] = target: T2, wt-PKR (Homo sapiens, UniProt P30613); assay: as above; conditions: PEP concentrations at or below Km
# T2 sequence (P30613 whole entry): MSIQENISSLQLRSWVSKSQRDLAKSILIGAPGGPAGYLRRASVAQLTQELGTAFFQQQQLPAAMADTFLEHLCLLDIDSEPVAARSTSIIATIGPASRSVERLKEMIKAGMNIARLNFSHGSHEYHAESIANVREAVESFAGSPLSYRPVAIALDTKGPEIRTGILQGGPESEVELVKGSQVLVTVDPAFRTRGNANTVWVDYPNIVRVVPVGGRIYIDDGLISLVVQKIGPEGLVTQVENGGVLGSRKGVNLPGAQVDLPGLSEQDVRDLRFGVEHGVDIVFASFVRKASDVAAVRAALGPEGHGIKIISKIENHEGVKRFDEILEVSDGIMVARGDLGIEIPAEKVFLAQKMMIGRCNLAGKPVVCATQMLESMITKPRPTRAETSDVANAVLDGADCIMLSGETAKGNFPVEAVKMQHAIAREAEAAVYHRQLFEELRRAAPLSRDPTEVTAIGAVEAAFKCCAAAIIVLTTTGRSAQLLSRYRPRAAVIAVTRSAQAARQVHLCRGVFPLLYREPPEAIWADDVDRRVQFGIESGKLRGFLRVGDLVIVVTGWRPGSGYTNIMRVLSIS
# wt-PKR [3] = target: T2, wt-PKR; assay: Enzyme assay, kinetic parameters (Vmax, PEP Km)
# Experimental: (§1) Tests were conducted in the presence and absence of fructose-1,6-bisphosphate (FBP), a known allosteric activator of PKR.
# PKR-R510Q [4] = target: T1, PKR-R510Q; assay: Enzyme assay, kinetic parameters (Vmax, PEP Km)
# Experimental: as §1
# [5] = 2 μM Compound 1, in the presence or absence of FBP
# [6] = 2 μM Compound 1, presence and absence of FBP
# T1 sequence (P30613 whole entry R510Q): as the sequence (P30613 whole entry) above, with R510Q counted along it
compound,measurement,setting,value
"O=C([C@H](CO)c1ccccc1)N1CC2=C(C1)CN(S(=O)(=O)c1cnc3c(c1)OCCO3)C2 (single isomer, unassigned) [Compound 1]",Maximum-fold Activation,PKR-R510Q [1],<3.0 fold
same,Maximum-fold Activation,wt-PKR [2],<2.0 fold
same,reduction of PEP Km,wt-PKR [3]; [5],~2 fold
same,effect on Vmax,wt-PKR [3]; [6],no effect to a modest increase
same,reduction of PEP Km,PKR-R510Q [4]; [5],~2 fold
same,effect on Vmax,PKR-R510Q [4]; [6],no effect to a modest increase
